Measured values: US9346812B2, “Substituted pyrrolopyrimidine compounds, compositions thereof, and methods of treatment therewith” (Signal Pharmaceutical LLC, priority 2013, dated 2016)

What follows are compounds tested on CAL51 cell proliferation (assay: Cell Titer Glo Proliferation Assay (CAL51)). Settings: CAL51 cell proliferation, 72 h, Cell Titer Glo luminescence; read-out: Act. Level.
Assay type: cell-based, human
Procedure, shortened: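 CAL51 triple-negative breast cancer cells in DMEM or RPMI with 10% FBS were treated after overnight culture with serially diluted compound at 0.2% final DMSO. After 72 h, viability was read as CellTiter-Glo luminescence.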

SMILES | IC50 [nM]
COc1cc(C(=O)NC2CCCOC2)ccc1Nc1nc(OC2CCCC2)c2c(-c3ccc4nc(C)oc4c3)c[nH]c2n1 (stereo not shown) [Example 274, 4-(4-(cyclopentyloxy)-5-(2-methylbenzo[d]oxazol-6-yl)-7H-pyrrolo[2,3-d]pyrimidin-2-ylamino)-3-methoxy-N-(tetrahydro-2H-pyran-3-yl) benzamide] | < 100

Same assay, conditions: Homo sapiens, CAL-51; CAL51 cell proliferation, 72 h, Cell Titer Glo luminescence; read-out: Act. Level

SMILES | IC50 [nM]
COc1cc(C(=O)N[C@@H]2CCC[C@@H]2O)ccc1Nc1nc(OC2CCCC2)c2c(-c3ccc4nc(C)oc4c3)c[nH]c2n1 [Example 253, 4-(4-(cyclopentyloxy)-5-(2-methylbenzo[d]oxazol-6-yl)-7H-pyrrolo[2,3-d]pyrimidin-2-ylamino)-N-((1R,2S)-2-hydroxycyclopentyl)-3-methoxybenzamide] | 100 to 400
COc1cc(C(=O)NC[C@@H]2CCCO2)ccc1Nc1nc(OC2CCCC2)c2c(-c3ccc4nc(C)oc4c3)c[nH]c2n1 [Example 254, (S)-4-(4-(cyclopentyloxy)-5-(2-methylbenzo[d]oxazol-6-yl)-7H-pyrrolo[2,3-d]pyrimidin-2-ylamino)-3-methoxy-N-((tetrahydrofuran-2-yl)methyl) benzamide] | 100 to 400
COc1cc(C(=O)NC2COC2)ccc1Nc1nc(OC2CCCC2)c2c(-c3ccc4nc(C)oc4c3)c[nH]c2n1 [Example 255, 4-(4-(cyclopentyloxy)-5-(2-methylbenzo[d]oxazol-6-yl)-7H-pyrrolo[2,3-d]pyrimidin-2-ylamino)-3-methoxy-N-(oxetan-3-yl)benzamide] | 100 to 400
COc1cc(C(=O)NCCF)ccc1Nc1nc(OC2CCCC2)c2c(-c3ccc4nc(C)oc4c3)c[nH]c2n1 [Example 256, 4-(4-(cyclopentyloxy)-5-(2-methylbenzo[d]oxazol-6-yl)-7H-pyrrolo[2,3-d]pyrimidin-2-ylamino)-N-(2-fluoroethyl)-3-methoxybenzamide] | 100 to 400
COc1cc(C(=O)N(C)CCC(N)=O)ccc1Nc1nc(OC2CCCC2)c2c(-c3ccc4nc(C)oc4c3)c[nH]c2n1 [Example 257, N-(3-amino-3-oxopropyl)-4-(4-(cyclopentyloxy)-5-(2-methylbenzo[d]oxazol-6-yl)-7H-pyrrolo[2,3-d]pyrimidin-2-ylamino)-3-methoxy-N-methylbenzamide] | < 100
CNC(=O)c1ccc(-c2c[nH]c3nc(Nc4ccc(C(=O)NCCO)cc4OC)nc(OC4CCCC4)c23)cc1 [Example 258, 4-(4-(cyclopentyloxy)-5-(4-(methylcarbamoyl)phenyl)-7H-pyrrolo[2,3-d]pyrimidin-2-ylamino)-N-(2-hydroxyethyl)-3-methoxybenzamide] | < 100
COc1cc(C(=O)N2CCN(C)CC2)ccc1Nc1nc(OC2CCCC2)c2c(-c3ccc4nc(C)oc4c3)c[nH]c2n1 [Example 259, (4-(4-(cyclopentyloxy)-5-(2-methylbenzo[d]oxazol-6-yl)-7H-pyrrolo[2,3-d]pyrimidin-2-ylamino)-3-methoxyphenyl)(4-methylpiperazin-1-yl)methanone] | < 100
CNC(=O)c1ccc(Nc2nc(OC3CCCC3)c3c(-c4ccc5nonc5c4)c[nH]c3n2)c(OC)c1 [Example 260, 4-(5-(benzo[c][1,2,5]oxadiazol-5-yl)-4-(cyclopentyloxy)-7H-pyrrolo[2,3-d]pyrimidin-2-ylamino)-3-methoxy-N-methylbenzamide] | 1000 to 10000
COc1cc(S(C)(=O)=O)c(F)cc1Nc1nc(OC2CCCC2)c2c(-c3ccc4nc(C)oc4c3)c[nH]c2n1 [Example 261, 4-(cyclopentyloxy)-N-(5-fluoro-2-methoxy-4-(methylsulfonyl)phenyl)-5-(2-methylbenzo[d]oxazol-6-yl)-7H-pyrrolo[2,3-d] pyrimidin-2-amine] | 100 to 400
COc1cc(C(=O)N2CC2)ccc1Nc1nc(OC2CCCC2)c2c(-c3ccc4nc(C)oc4c3)c[nH]c2n1 [Example 262, aziridin-1-yl(4-(4-(cyclopentyl-oxy)-5-(2-methylbenzo[d]oxazol-6-yl)-7H-pyrrolo[2,3-d]pyrimidin-2-ylamino)-3-methoxyphenyl) methanone] | 100 to 400
COc1cc(C(=O)N(C)CC#N)ccc1Nc1nc(OC2CCCC2)c2c(-c3ccc4nc(C)oc4c3)c[nH]c2n1 [Example 263, N-(cyanomethyl)-4-(4-(cyclo-pentyloxy)-5-(2-methylbenzo[d]oxazol-6-yl)-7H-pyrrolo[2,3-d]pyrimidin-2-ylamino)-3-methoxy-N-methylbenzamide] | < 100
COc1cc(C(=O)N[C@H]2CCC[C@H]2O)ccc1Nc1nc(OC2CCCC2)c2c(-c3ccc4nc(C)oc4c3)c[nH]c2n1 [Example 264, 4-(4-(cyclopentyloxy)-5-(2-methylbenzo[d]oxazol-6-yl)-7H-pyrrolo[2,3-d]pyrimidin-2-ylamino)-N-((1S,2R)-2-hydroxycyclopentyl)-3-methoxy-benzamide] | 100 to 400
COc1cc(C(=O)N[C@H]2CCC[C@@H]2O)ccc1Nc1nc(OC2CCCC2)c2c(-c3ccc4nc(C)oc4c3)c[nH]c2n1 [Example 265, 4-(4-(cyclopentyloxy)-5-(2-methylbenzo[d]oxazol-6-yl)-7H-pyrrolo[2,3-d]pyrimidin-2-ylamino)-N-((1S,2S)-2-hydroxy-cyclopentyl)-3-methoxybenzamide] | 100 to 400
COc1cc(C(=O)N[C@@H]2CCC[C@H]2O)ccc1Nc1nc(OC2CCCC2)c2c(-c3ccc4nc(C)oc4c3)c[nH]c2n1 [Example 266, 4-(4-(cyclopentyloxy)-5-(2-methylbenzo[d]oxazol-6-yl)-7H-pyrrolo[2,3-d]pyrimidin-2-ylamino)-N-((1R,2R)-2-hydroxycyclopentyl)-3-methoxybenzamide] | 100 to 400
COc1cc(C(=O)N[C@H]2CCOC2)ccc1Nc1nc(OC2CCCC2)c2c(-c3ccc4nc(C)oc4c3)c[nH]c2n1 [Example 267, (S)-4-(4-(cyclopentyloxy)-5-(2-methylbenzo[d]oxazol-6-yl)-7H-pyrrolo[2,3-d]pyrimidin-2-ylamino)-3-methoxy-N-(tetrahydrofuran-3-yl)benzamide] | 100 to 400
COc1cc(C(=O)N(C)CC(N)=O)ccc1Nc1nc(OC2CCCC2)c2c(-c3ccc4nc(C)oc4c3)c[nH]c2n1 [Example 268, N-(2-amino-2-oxoethyl)-4-(4-(cyclopentyloxy)-5-(2-methylbenzo[d]oxazol-6-yl)-7H-pyrrolo[2,3-d]pyrimidin-2-ylamino)-3-methoxy-N-methylbenzamide] | < 100
CNC(=O)c1ccc(Nc2nc(OC3CCOCC3)c3c(-c4ccnnc4)c[nH]c3n2)c(OC)c1 [Example 269, 3-methoxy-N-methyl-4-(5-(pyridazin-4-yl)-4-(tetrahydro-2H-pyran-4-yloxy)-7H-pyrrolo[2,3-d]pyrimidin-2-ylamino)benzamide] | 400 to 1000
CNC(=O)c1ccc(Nc2nc(OC3CCOCC3)c3c(-c4ccncn4)c[nH]c3n2)c(OC)c1 [Example 270, 3-methoxy-N-methyl-4-(5-(pyrimidin-4-yl)-4-(tetrahydro-2H-pyran-4-yloxy)-7H-pyrrolo[2,3-d]pyrimidin-2-ylamino)benzamide] | 100 to 400
COc1cc(C(=O)N(C)CC2(C)COC2)ccc1Nc1nc(OC2CCCC2)c2c(-c3ccc4nc(C)oc4c3)c[nH]c2n1 [Example 271, 4-(4-(cyclopentyloxy)-5-(2-methylbenzo[d]oxazol-6-yl)-7H-pyrrolo[2,3-d]pyrimidin-2-ylamino)-3-methoxy-N-methyl-N-((3-methyloxetan-3-yl)methyl)benzamide] | < 100
COc1cc(C(=O)N(C)C2COC2)ccc1Nc1nc(OC2CCCC2)c2c(-c3ccc4nc(C)oc4c3)c[nH]c2n1 [Example 272, 4-(4-(cyclopentyloxy)-5-(2-methylbenzo[d]oxazol-6-yl)-7H-pyrrolo[2,3-d]pyrimidin-2-ylamino)-3-methoxy-N-methyl-N-(oxetan-3-yl)benzamide] | < 100
COc1cc(C(=O)NC2CCCOC2)ccc1Nc1nc(OC2CCCC2)c2c(-c3ccc4nc(C)oc4c3)c[nH]c2n1 (stereo not shown) [Example 273, 4-(4-(cyclopentyloxy)-5-(2-methylbenzo[d]oxazol-6-yl)-7H-pyrrolo[2,3-d]pyrimidin-2-yl-amino)-3-methoxy-N-(tetrahydro-2H-pyran-3-yl)benzamide] | < 100
COc1cc(C(=O)N2CCC(OC)CC2)ccc1Nc1nc(OC2CCCC2)c2c(-c3ccc4nc(C)oc4c3)c[nH]c2n1 [Example 275, (4-(4-(cyclopentyloxy)-5-(2-methylbenzo[d]oxazol-6-yl)-7H-pyrrolo[2,3-d]pyrimidin-2-ylamino)-3-methoxyphenyl)(4-methoxypiperidin-1-yl)methanone] | < 100
CC[C@H](C)Oc1nc(Nc2ccc(C(=O)NC)cc2OC)nc2[nH]cc(-c3cnn(C)c3)c12 [Example 276, (S)-4-(4-sec-butoxy-5-(1-methyl-1H-pyrazol-4-yl)-7H-pyrrolo[2,3-d]pyrimidin-2-ylamino)-3-methoxy-N-methylbenzamide] | < 100
COc1cc(C#N)ccc1Nc1nc(OC2CCCC2)c2c(-c3ccc4nc(C)oc4c3)c[nH]c2n1 [Example 277, 4-(4-(cyclopentyloxy)-5-(2-methylbenzo[d]oxazol-6-yl)-7H-pyrrolo[2,3-d]pyrimidin-2-ylamino)-3-methoxybenzonitrile] | 100 to 400
CNC(=O)c1ccc(Nc2nc(OC3CCCC3)c3c(-c4ccc5cnn(C)c5c4)c[nH]c3n2)c(OC)c1 [Example 278, 4-(4-(cyclopentyloxy)-5-(1-methyl-1H-indazol-6-yl)-7H-pyrrolo[2,3-d]pyrimidin-2-ylamino)-3-methoxy-N-methylbenzamide] | 400 to 1000
CNC(=O)c1ccc(Nc2nc(OC3CCCC3)c3c(-c4ccc5c(C)noc5c4)c[nH]c3n2)c(OC)c1 [Example 279, 4-(4-(cyclopentyloxy)-5-(3-methylbenzo[d]isoxazol-6-yl)-7H-pyrrolo[2,3-d]pyrimidin-2-ylamino)-3-methoxy-N-methylbenzamide] | < 100
CNC(=O)c1cc(OC)c(Nc2nc(OC3CCCC3)c3c(-c4ccc5nc(C)oc5c4)c[nH]c3n2)cn1 [Example 280, 5-(4-(cyclopentyloxy)-5-(2-methylbenzo[d]oxazol-6-yl)-7H-pyrrolo[2,3-d]pyrimidin-2-ylamino)-4-methoxy-N-methylpicolinamide] | < 100
